PubChem BioAssay AID1208 (EPA DSSTox, 2008)
Active and inactive are the calls of the source.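 The calls were made as follows: active = at least one rat sex group has a carcinogenic potency value and tumor site recorded; inconclusive = only rat studies were judged inadequate by the national testing program; inactive = no potency or tumor site, with negative rat experiments.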

Tested on: rat chronic carcinogenicity bioassay, TD50
Assay: DSSTox (CPDBAS) Carcinogenic Potency Database Summary Rat Bioassay Results
Settings: for Potency: active compounds read low
In short: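 Chronic long-term rat cancer bioassays from literature and NCI/NTP, taking the most positive result per sex. TD50 in mmol converted to a 1–100 Activity Score from log10(1/TD50). Mixtures lacking TD50 scored 50.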

[1] = TD50_Rat_Note: no positive results, TargetSites_Rat_Female: no positive results
[2] = TargetSites_Rat_Female: no positive results
[3] = TD50_Rat_Note: no positive results

Question: How did the Potency (TD50_Rat_Note: TD50 is harmonic mean of more than one positive test, TargetSites_Rat_Female: liver, lung, vascular system) turn out when `CC(=O)CN(CC(C)=O)N=O` was run?
Answer: 0.491 mg/kg/day

Question: For `Cc1cccc(Nc2cc(Cl)nc(SCC(=O)O)n2)c1C`, which Potency (TD50_Rat_Note: TD50 is harmonic mean of more than one positive test, harmonic mean of TD50 includes a value for upper 99% confidence li) is on record?
Answer: 4.36 mg/kg/day

Question: For `C=Cc1cccc[n+]1[O-]`, which outcome [1] is on record?
Answer: inactive

Question: For `OCc1ccco1`, which Potency [2] is on record?
Answer: 9.6 mg/kg/day

Question: Which Potency (TD50_Rat_Note: positive test results only by intraperitoneal or intravenous injection, no positive results are statistically significan) does the source give for `CN(N=O)c1ccc(N=O)cc1` here?
Answer: 1.3 mg/kg/day

Question: How did the outcome [1] turn out when `FC(F)(Cl)Cl` was run?
Answer: inactive; no positive results

Question: For `O=C(O)CN(CCN(CC(=O)O)CC(=O)O)CC(=O)O`, which outcome [1] is on record?
Answer: inactive; no positive results

Question: How did the Potency (TD50_Rat_Note: TD50 is harmonic mean of more than one positive test, TargetSites_Rat_Female: adrenal gland, hematopoietic system, liver, mammary gland, thyroid gland) turn out when `O=C1OC(O)C(C(Cl)Cl)=C1Cl` (centres undefined) was run?
Answer: 0.583 mg/kg/day

Question: With `OC(O)C(Cl)(Cl)Cl` as the molecule, how does the outcome [3] read?
Answer: inactive; no positive results

Question: `ClCOCCl` was tested. Which Potency did it give?
Answer: 0.00357 mg/kg/day

Question: For `CC1=C(/C=C/C(C)=C/C=C/C(C)=C/C(=O)O)C(C)(C)CCC1`, which outcome [1] is on record?
Answer: inactive; no positive results

Question: With `CCCCCC(N)=O` as the molecule, how does the outcome [1] read?
Answer: inactive; no positive results

Question: How did the outcome [1] turn out when `Cc1c(C)c2c(c(C)c1O)CCC(C)(CCCC(C)CCCC(C)CCCC(C)C)O2` (centres undefined) was run?
Answer: inactive; no positive results

Question: For `Oc1c(Cl)cc(Cl)c(Cl)c1Cc1c(O)c(Cl)cc(Cl)c1Cl`, which outcome [1] is on record?
Answer: inactive; no positive results

Question: How did the Potency [1] turn out when `Cc1ccc(C)c(OCCCC(C)(C)C(=O)O)c1` was run?
Answer: 247 mg/kg/day

Question: How did the outcome [1] turn out when `ClCC(Cl)(Cl)Cl` was run?
Answer: inactive; no positive results

Question: `O=S1OCC2C(CO1)C1(Cl)C(Cl)=C(Cl)C2(Cl)C1(Cl)Cl` (centres undefined) was tested. Which outcome [1] did it give?
Answer: inactive; no positive results

Question: How did the outcome [3] turn out when `O=S1(=O)N=C(O)c2ccccc21` was run?
Answer: inactive; no positive results

Question: With `COP(=O)(OC)OC=C(Cl)Cl` as the molecule, how does the Potency [2] read?
Answer: 4.16 mg/kg/day

Question: `O=[N+]([O-])c1ccc2nc[nH]c2c1` was tested. Which outcome [1] did it give?
Answer: inactive; no positive results

Question: How did the outcome [3] turn out when `CC[C@]1(O)CC2CN(CCc3c([nH]c4ccccc34)[C@@](C(=O)OC)(c3cc4c(cc3OC)N(C)[C@H]3[C@@](O)(C(=O)OC)[C@H](OC(C)=O)[C@]5(CC)C=CCN6CC[C@]43[C@@H]65)C2)C1` (some centres undefined) was run?
Answer: inactive; no positive results

Question: Which outcome [3] does the source give for `O=C(O)c1ccc(O)c(O)c1` here?
Answer: inactive; no positive results

Question: Which Potency [2] does the source give for `Nc1ccc(Cl)c(N)c1` here?
Answer: 315 mg/kg/day

Question: How did the Potency [2] turn out when `ClCc1cccnc1` was run?
Answer: 433 mg/kg/day

Question: With `BrCCBr` as the molecule, how does the Potency (TD50_Rat_Note: TD50 is harmonic mean of more than one positive test, TargetSites_Rat_Female: liver, lung, mammary gland, nasal cavity, pituitary gland, stomach, vascular system) read?
Answer: 1.52 mg/kg/day

Question: For `CCN(N=O)C(N)=O`, which Potency (TD50_Rat_Note: TD50 is harmonic mean of more than one positive test, TargetSites_Rat_Female: nervous system, small intestine) is on record?
Answer: 0.948 mg/kg/day

Question: `Nc1ccccc1C(=O)O` was tested. Which outcome [1] did it give?
Answer: inactive; no positive results

Question: `CC1=C(CC(=O)O)c2cc(F)ccc2/C1=C\c1ccc(S(C)(=O)=O)cc1` was tested. Which outcome [3] did it give?
Answer: inactive; no positive results

Question: `CC1(C)OC(=O)NC1=O` was tested. Which outcome [3] did it give?
Answer: inactive; no positive results

Question: For `Cc1ccc2cc3c(ccc4ccccc43)c3c2c1CC3`, which Potency (TD50_Rat_Note: TD50 is harmonic mean of more than one positive test, harmonic mean of TD50 includes a value for upper 99% confidence li, TargetSites_Rat_Female: mammary gland) is on record?
Answer: 0.491 mg/kg/day

Question: With `COc1cc(/C=C/C(=O)OCCc2ccccc2)ccc1O` as the molecule, how does the outcome [3] read?
Answer: inactive; no positive results

Question: How did the outcome [1] turn out when `CN1[C@@H]2CC[C@H]1CC(OC(=O)C(CO)c1ccccc1)C2` (some centres undefined) was run?
Answer: inactive; no positive results

Question: Which Potency (TD50_Rat_Note: TD50 is harmonic mean of more than one positive test, TargetSites_Rat_Female: bone, mammary gland, urinary bladder, vascular system) does the source give for `Cc1ccccc1N` here?
Answer: 43.6 mg/kg/day

Question: How did the outcome [1] turn out when `O=C(CCl)c1ccccc1` was run?
Answer: inactive; no positive results

Question: How did the Potency (TD50_Rat_Note: TD50 is harmonic mean of more than one positive test, TargetSites_Rat_Female: clitoral gland, ear Zymbals gland, hematopoietic system, large intestine, liver, oral cavity, skin, small intestine, ute) turn out when `COc1cc(-c2ccc(N=Nc3c(S(=O)(=O)O)cc4cc(S(=O)(=O)O)cc(N)c4c3O)c(OC)c2)ccc1N=Nc1c(S(=O)(=O)O)cc2cc(S(=O)(=O)O)cc(N)c2c1O` was run?
Answer: 27.5 mg/kg/day

Question: How did the Potency (TD50_Rat_Note: positive test results only by intraperitoneal or intravenous injection) turn out when `O=NN1CCCN(N=O)C1` was run?
Answer: 0.166 mg/kg/day

Question: `C=CCc1ccc(O)c(OC)c1` was tested. Which outcome [1] did it give?
Answer: inactive; no positive results

Question: `Nc1ccc(N=Nc2ccccc2)c(N)n1` was tested. Which Potency (TD50_Rat_Note: TD50 is harmonic mean of more than one positive test, TargetSites_Rat_Female: large intestine) did it give?
Answer: 303 mg/kg/day

Question: Which outcome [3] does the source give for `CN1C(=O)OC(C)(C)C1=O` here?
Answer: inactive; no positive results

Question: For `Oc1ccc2c(c1)OCO2`, which Potency (TD50_Rat_Note: TD50 is harmonic mean of more than one positive test, TargetSites_Rat_Female: stomach) is on record?
Answer: 1350 mg/kg/day

Question: How did the Potency (TargetSites_Rat_Female: lung, mammary gland, small intestine, stomach) turn out when `CN(C)CNc1nnc(/C=C/c2ccc([N+](=O)[O-])o2)o1` was run?
Answer: 22.4 mg/kg/day

Question: How did the Potency (TargetSites_Rat_Female: esophagus, liver, oral cavity) turn out when `CC1SC(C)N(N=O)C(C)S1` (centres undefined) was run?
Answer: 0.483 mg/kg/day

Question: For `CC(N)Cc1ccccc1` (centres undefined), which outcome [1] is on record?
Answer: inactive; no positive results

Question: Which outcome [1] does the source give for `CC[N+](=O)[O-]` here?
Answer: inactive; no positive results
